Source: patent publication US6869973B2, “Nitrosated and nitrosylated taxanes, compositions and methods of use” (NitroMed, Inc., priority 2000, dated 2005)
Read-outs that look alike come from different tables or passages of the source.

Legend:
rabbit platelets = test: Rabbit platelet aggregation assay (ADP-induced, platelet-rich plasma); format: cell-based, New Zealand White rabbits; settings: rabbit PRP, 2 min pre-incubation, FIG. 2; for effect on platelet aggregation (qualitative): concentrations higher than 1 μM
Experimental: Blood was collected from New Zealand White rabbits into a sodium citrate solution. Platelet-rich plasma (PRP) and platelet-poor plasma (PPP) were obtained by centrifugation of the citrated blood. Aggregation of the platelets, which was induced by addition of adenosine diphosphate (ADP), was measured in a Chrono-Log Aggregometer (Havertown, Pa.). Stock solutions of the test compounds were prepared in ethanol at concentrations 1000-fold higher than the final concentrations. The test compounds at these different concentrations were pre-incubated with the PRP for 2 min with stirring prior to the addition of ADP. Inhibition of aggregation was quantified as follows: % Inhibition=100% (1−(Max. Ampl. Agg. in Test Compound/Max. Ampl. Agg. Control)) • “Max. Ampl. Agg. In Test Compound” was the measured maximum amplitude of the platelets in the PRP in the presence of and after pre-incubation with the test compound. • “Max. Ampl. Agg. Control” was the measured maximum amplitude of the platelets in the PRP without test compound addition.
Nitric oxide inhibits the aggregation of platelets whether added as the gas or in the form of a NO donor.

[1] = tested on: human coronary artery smooth muscle cells (CASMC); test: Vascular smooth muscle cell (SMC) antiproliferation assay; format: cell-based
Experimental: The cells used in this assay were human coronary artery smooth muscle cells (CASMC) supplied by Clonetics Corp. (San Diego, Calif.). They were maintained in SmGM-2 growth medium (Clonetics Corp.), which consisted of modified MCDB 131 medium supplemented with 5% (v/v) fetal bovine serum (FBS), 0.5 ng/mL human recombinant epidermal growth factor (EGF), 2 ng/mL human recombinant fibroblast growth factor (FGF), 5 μg/mL bovine insulin, 50 μg/mL gentamicin sulfate, and 50 ng/mL amphotericin B under humidified 95% air-5% CO2 at 37° C.
For the SMC antiproliferation assay, the cells were seeded at 3×10^4 viable cells in 2 mL of SmGM-2 medium per well of a Corning 24 well plate (Corning, N.Y.). Stock solutions of the test compounds were prepared just prior to addition to the cells by dissolving in ethanol at a concentration of 40 mM. This stock solution was diluted, as required, with ethanol to lower concentrations. […] Control cultures received 2 μL of ethanol per well (n=4). On the following morning, the cultures were examined microscopically and their condition recorded. On the third day after test compound addition (˜68 hr), the cultures were examined microscopically again and the viable cells counted with an hemacytometer following trypsinization with 0.25% trypsin-1 mM EDTA. Trypan Blue dye exclusion was used to discriminate between viable and dead cells.
(§1) The SMC antiproliferation assay was performed as described in Example 5.
as §1

[2] = CASMC, viable cell count ~68 hr after compound addition, FIG. 1 / FIG. 3
[3] = CASMC, qualitative ranking against comparator named in the sentence

Compound	effect on platelet aggregation (qualitative) (rabbit platelets)	concentration that totally suppressed cell proliferation of the seeded cells [1, 2] [µM]	comparison of inhibition of proliferation of vascular smooth muscle cells [1, 3]	other results
CC(=O)O[C@H]1C(=O)[C@@]2(C)C([C@H](OC(=O)c3ccccc3)C3(O)C[C@H](OC(=O)[C@H](O)[C@@H](NC(=O)c4ccccc4)c4ccccc4)C(C)=C1C3(C)C)[C@]1(OC(C)=O)CO[C@@H]1C[C@@H]2OC(=O)CC(C)(C)SN=O (stereo partly drawn) [Example 1, 15-((3S,2R)-2-hydroxy-3-phenyl-3-(phenylcarbonylamino)propanoyloxy) (2S,4S,9S,10S,15S,7R,12R)-4,12-diacetyloxy-1-hydroxy-10,14,17,17-tetramethyl-6-oxa-11-oxo-2-phenylcarbonyloxytetracyclo (11.3.1.0<3,10>0.0<4,7>)heptadec-13-en-9-yl 3-methyl-3-(nitrosothio) butanoate]	inhibited platelet aggregation, but required higher concentrations than SNO-Glu	0.1	superior to its non-nitrosylated derivative (Example 1d)	–
9-(2-({((2R)-2,3-bis(nitrooxy)propyl)oxycarbonyl}methoxy)acetyloxy)(1S,2S,4S,9S,10S,15S,7R,12R)-4,12-diacetyloxy-1-hydroxy-10,14,17,17-tetramethyl-6-oxa-11-oxo-2 phenylcarbonyloxytetracyclo (11.3.1.0<3,10>0.0<4,7>)heptadec-13-en-15-yl 2-(2-({((2R)-2,3-bis(nitrooxy)propyl)oxycarbonyl}methoxy)acetyloxy)(3S,2R)-3-phenyl-3-(phenylcarbonylamino)propanoate [Example 3]	–	–	–	comparison of inhibition of proliferation of vascular smooth muscle cells [1]: superior to paclitaxel; concentration that totally suppressed cell proliferation of the seeded cells [1]: 1 µM
CC(=O)O[C@H]1C(=O)[C@@]2(C)C([C@H](OC(=O)c3ccccc3)[C@]3(O)C[C@H](OC(=O)[C@H](O)[C@@H](NC(=O)c4ccccc4)c4ccccc4)C(C)=C1C3(C)C)[C@]1(OC(C)=O)CO[C@@H]1C[C@@H]2OC(=O)CC(C)(C)S (stereo partly drawn) [Example 1d, 15-((3S,2R)-2-hydroxy-3-phenyl-3-(phenylcarbonylamino)propanoyloxy) (2S,4S,9S,10S,15S,7R,12R)-4,12-diacetyloxy-1-hydroxy-10,14,17,17-tetramethyl-6-oxa-11-oxo-2-phenylcarbonyloxytetracyclo(11.3.1.0<3,10>0.0<4,7>)heptadec-13-en-9-yl 3-methyl-3-sulfanylbutanoate]	did not prevent platelet aggregation	0.1	–	–
CC(=O)O[C@H]1C(=O)[C@@]2(C)[C@H]([C@H](OC(=O)c3ccccc3)[C@]3(O)C[C@H](OC(=O)[C@H](O)[C@@H](NC(=O)c4ccccc4)c4ccccc4)C(C)=C1C3(C)C)[C@]1(OC(C)=O)CO[C@@H]1C[C@@H]2O [Paclitaxel, reference compound]	did not prevent platelet aggregation	0.01	–	–
N[C@@H](CCC(=O)N[C@@H](CSN=O)C(=O)NCC(=O)O)C(=O)O [S-Nitrosoglutathione, reference compound]	–	–	–	final concentration that totally inhibited platelet aggregation (rabbit platelets): 1 µM
CC(=O)OC1C(=O)C2(C)C(OC(=O)COCC(=O)OCC(CO[N+](=O)[O-])(CO[N+](=O)[O-])CO[N+](=O)[O-])CC3OCC3(OC(C)=O)C2C(OC(=O)c2ccccc2)C2(O)CC(OC(=O)C(OC(=O)COCC(=O)OCC(CO[N+](=O)[O-])(CO[N+](=O)[O-])CO[N+](=O)[O-])C(NC(=O)c3ccccc3)c3ccccc3)C(C)=C1C2(C)C [Example 4, (1S,2S,4S,9S,10S,15S,7R,12R)-4,12-diacetyloxy-9-{2-(({2,2-bis((nitrooxy)methyl)-3-(nitrooxy)propyl}oxycarbonyl)methoxy)acetyloxy}-1-hydroxy-10,14,17,17-tetramethyl-6-oxa-11-oxo-2-phenylcarbonyloxytetracyclo (11.3.1.0<3,10>0.0<4,7>)heptadec-13-en-15-yl(3S,2R)-2-{2-(({2,2-bis ((nitrooxy)methyl)-3-(nitrooxy)propyl}oxycarbonyl)methoxy)acetyloxy}-3-phenyl-3-(phenylcarbonylamino)propanoate]	–	1	superior to paclitaxel	–
